Laboratory results published in US9932352B2, “Compounds for the treatment of ischemia-reperfusion-related diseases” (MINERVA PATENTS S.A., priority 2012, dated 2018).

Experiments:
TrkA receptor = molecular target: T1, TrkA receptor (Rattus norvegicus, UniProt P35739); test: Autophosphorylation of the TrkA receptor in PC12 cells (Western blotting); assay type: cell-based; conditions: serum-free 6 hours, NGF 10 ng/ml or compounds 10 μm, 20 minutes, WB, ratio to total TrkA
T1 construct: Autophosphorylation of the TrkA receptor on PC12 cells when incubated with NGF or with a mimetic; endogenous in cells; host or cells: PC12 rat pheochromocytoma cells
T1 sequence (P35739 33-799): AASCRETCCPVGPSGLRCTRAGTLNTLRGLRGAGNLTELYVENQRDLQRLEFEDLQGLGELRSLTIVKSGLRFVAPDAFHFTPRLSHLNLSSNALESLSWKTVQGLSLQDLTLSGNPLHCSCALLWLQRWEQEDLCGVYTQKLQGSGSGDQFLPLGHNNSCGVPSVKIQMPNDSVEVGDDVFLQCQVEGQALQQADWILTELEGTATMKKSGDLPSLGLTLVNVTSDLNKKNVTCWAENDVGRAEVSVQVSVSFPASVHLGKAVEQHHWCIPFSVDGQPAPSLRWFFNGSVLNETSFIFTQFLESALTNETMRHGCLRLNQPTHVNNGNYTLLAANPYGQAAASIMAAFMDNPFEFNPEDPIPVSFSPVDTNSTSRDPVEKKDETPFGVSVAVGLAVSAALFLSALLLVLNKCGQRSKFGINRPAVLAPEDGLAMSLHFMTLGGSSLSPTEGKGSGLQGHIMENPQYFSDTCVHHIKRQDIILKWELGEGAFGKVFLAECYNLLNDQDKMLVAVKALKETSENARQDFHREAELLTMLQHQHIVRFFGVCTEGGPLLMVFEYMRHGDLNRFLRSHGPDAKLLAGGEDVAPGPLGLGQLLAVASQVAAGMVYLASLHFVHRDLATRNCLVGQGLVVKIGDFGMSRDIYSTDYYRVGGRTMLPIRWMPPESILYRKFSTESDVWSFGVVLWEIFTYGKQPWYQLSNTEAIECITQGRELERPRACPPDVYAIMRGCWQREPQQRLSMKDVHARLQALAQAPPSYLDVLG
Protocol: Cells of the continuous PC12 pheochromocytoma rat line were cultured at a concentration of 4×10^5/ml in RPMI 1640 medium, supplemented with 5% glutamine, antibiotics, and in the absence of serum, in 24-well plates for 6 hours. Subsequently, NGF at a final concentration of 10 ng/ml or alternatively the compounds of formula (I), at the final concentration of 10 μm, were added to these cultures. After 20 minutes, the cells were thus lysed in RIPA buffer (20 mM Tris-HCl, pH 7.5, 150 mM NaCl, 1 mM Na2 EDTA, 1 mM EGTA, 1% NP-40, 1% sodium deoxycholate, 25 mM sodium pyrophosphate, 1 mMβ-glycerophosphate, 1 mM Na3VO4, 1 μg/ml leupeptin) for biochemical analysis by means of Western blotting (WB) technique, using specific antibodies for the phosphorylated form of the tyrosines 490, 674/675 or 785.
The graphs show the phosphorylation values of the indicated tyrosines (Y490, Y674/675, Y785), expressed as the ratio of the intensities of the bands observed in WB, developed with the respective anti-phosphotyrosine antibodies, to the band relating to the total TrkA protein. It is clear that the mimetics very strongly induce the phosphorylation of Y490 and much less that of the other tyrosines.

MKP-1 protein = test: Induction of MKP-1 protein expression in PC12 cells (Western blotting); assay type: cell-based, rat; conditions: serum-free, NGF 10 ng/ml or compounds 10 μm, 30 minutes, WB densitometry
Protocol: (§1) PC12 cells were cultured in the absence of serum, exactly as described above in example 5, and then treated for 30 minutes with NGF, at the final concentration of 10 ng/ml, or alternatively with the compounds of formula (I), at the final concentration of 10 μm; subsequently, the cells were lysed, and analysed by WB, using antibodies specific for the MKP-1 protein.

p38 MAPK protein = test: Dephosphorylation of p38 MAPK protein in serum-deprived PC12 cells (Western blotting); assay type: cell-based, rat; conditions: serum deprivation 6 hours, NGF 10 ng/ml or compounds 10 μm, 30 minutes, WB
Protocol: as §1, with “and” for “and then”, “I,” for “(I),”, “μm;” for “μm; subsequently,”, “subsequently lysed” for “lysed,”, “phosphorylated form of the enzyme.” for “MKP-1 protein.”
A homogeneity control of protein load on gel, normalisation with β-actin is reported. (FIG. 3).

Murine cardiomyocytes = test: Apoptosis induced by ROS after hypoxia/reperfusion, Annexin-V flow cytometry; assay type: cell-based; conditions: cells cultured in hypoxia, end of reperfusion period, vs controls

NGF: recombinant human NGF, the native neurotrophin used as comparator at 10 ng/ml
phosphorylation of TrkA tyrosines 490, 674/675, 785 (TrkA receptor): invariably induced the phosphorylation of all tyrosines | MKP-1 protein levels (ratio MKP1 band to β-actin) (MKP-1 protein): significantly higher than the control | dephosphorylation of p38 MAPK (p38 MAPK protein): marked dephosphorylation of p38 MAPK | percentage of apoptotic cells (Annexin-V positive) (Murine cardiomyocytes): much lower percentage of apoptotic cells than the controls
